The record followed here is ChEMBL document CHEMBL1938228, “Design and synthesis of potent carboxylic acid DGAT1 inhibitors with high cell permeability” (Bioorg Med Chem Lett, 2012).

For orientation: logD means the decadic logarithm of the distribution of all forms, ionised or not, between an organic phase and buffer at a given pH. Read a low logD as a more hydrophilic compound. For orientation: solubility means how much of the substance goes into solution per volume.

One series relates to Salmonella typhimurium. Kind of series: Induction of mutagenesis in Salmonella Typhimurium TA98 assessed as increase in mutation frequency in presence of liver S9 fraction relative to untreated control. It is filed as toxicity, organism-based. The following applies: salmonella enterica subsp. enterica serovar typhimurium.
A short description of series [1]: Lipophilicity, log D of the compound. It is filed as physicochemical. The following applies: octanol/water.
Series [2] in a line: Aqueous solubility of the compound. It is filed as physicochemical.

As to `CC(C)(COc1ccc(-c2ccc(N)cc2)cc1)C(=O)O`, the “fold change (FC)” value with Salmonella typhimurium is recorded as 24.
In turn, `CC(Sc1nnc(-c2ccc(NC(=O)c3ccccc3)cc2)n1C)C(=O)O` (racemic) came in with a logD in series [1] of -0.53. The solubility in series [2] was above 1000 µg/mL.
As to `CC(C)(COc1ccc(-c2ccc(N)cc2)cn1)C(=O)O`, the “fold change (FC)” value in the series on Salmonella typhimurium is on record as 2.6.
